Measurements as given in patent US12178800B2, “Sulforaphane-melatonin-like compound” (priority 2018, dated 2024).

Experiments:
[1] = system: 2-Thiobarbituric Acid Reactive Substances (TBARS); assay: TBARS levels in mouse tongues; format: in vivo, ICR mice; details: 12 days after irradiation
Source text: The scoring of oral mucositis was based on a modification of the method of Sonis et al. To assess the severity of oral mucositis, mice were anesthetized with isoflurane every day. The oral mucositis score was: 0=normal; 1=partial hyperemia, erythema and swelling; 2=overall hyperemia, erythema and swelling; 3=epidermolysis, hyperemia and erythema; 4=extensive epidermolysis and bleeding; 5=bleeding and abscesses. Myeloperoxidase (MPO) activity is a marker for neutrophils in inflamed tissue. MPO activity was measured in mouse tongues using a modification of the method of Chen et al. After mice had been killed by cervical dislocation 12 days after irradiation, tongue samples (n=10 per group) were removed and stored at −70° C. until required for assay. […] MPO activity was measured using a Microplate Reader (NJ-2300; Biotec, Tokyo, Japan) at 450 nm. MPO activity was calculated by measuring the slope of absorbance calibrated using MPO standards (Wako Biochemicals) and expressed as MPO/g tongue. […] TBARS levels were measured using the Microplate Reader (Biotec) at 540 nm. TBARS levels were calculated by measuring the slope of absorbance calibrated using TBARS standards and expressed as TBARS/g tongue. […] The number of TUNEL-positive cells on the tongue tips were counted and expressed as a percentage. […] Data were analyzed using one-way analysis of variance (ANOVA) followed by the Steel-Dwass test. […]

irradiated skin of pigs = assay: Gamma-radiation-induced dermatitis in mini-pigs, clinical skin reaction score; format: in vivo, Gottingen mini-pigs
Source text: Male Gottingen mini-pigs (mean weight, 19 kg; range, 18-20 kg; age, 6-7 months), obtained from Institute of Animal Breeding and Genetics, University of Gottingen, Germany, were used in these experiments. The mini-pigs were provided with tap water and commercial laboratory piglet chow from Purina Germany (Purina laboratory pig chow-5085) containing crude protein, fat, fiber, and ash, as well as calcium, phosphorus, and moisture (14.5, 4, 5, 8, 0.55, 1, and 14%, respectively). In addition, no antibiotic supplements were used. All animal experiments were performed in compliance to The German Animal Welfare Act.
A formulation in accordance with embodiments of the present invention appropriate for topical administration was obtained by adding 200 mg of carbopol (Carbopol 934P; Lubrizol, USA) to 2.5 mL of distilled water and solubilizing 200 mg of 6OHM-6-HITC in 2 mL of ethanol. An appropriate amount of the ethanolic dispersion was transferred to the aqueous dispersion of carbopol. Methanol (1.25 mL) was mixed with 1 mL of ethanol and added to the 6OHM-6-HITC and carbopol mixture, which was gradually stirred, and carbopol was allowed to soak for 2 h. Triethanolamine (100 mg; Sigma-Aldrich, USA) was added to neutralize the carbopol solution and facilitate the formation of a gel, after which the pH was adjusted to 6.8. A vehicle cream was prepared using the same ingredients and identical methods as the cream, but 6OHM-6-HITC was omitted from the mixture. […] For topical treatment, 6OHM-6-HITC or the vehicle cream (concentration, 200 mg/cm^2) was spread on the irradiated skin of pigs twice daily for 35 days, and the first application was performed immediately after irradiation.
To observe the effects of gamma-radiation on the skin of mini-pigs (3 animals per group), the dorsal skin was irradiated. […]
The pigs were evaluated every week during the five weeks following the irradiation, and their skin reactions were scored using a clinical status scoring system. […]

SMILES: COc1cc2c(CCCCN=C=S)c[nH]c2cc1O [6OHM-6-HITC]
- TBARS levels vs. control group ([1]; 30 mg/kg i.p.): lower
- TBARS levels vs. control group ([1]; 300 mg/kg i.p.): significant decrease
- clinical changes of irradiated skin vs. vehicle-treated (irradiated skin of pigs; 1 week after 50 Gy gamma irradiation, topical twice daily): similar
- severity of skin reaction vs. vehicle-treated irradiation group (irradiated skin of pigs; 50 Gy gamma irradiation, topical twice daily for 35 days): decreased severity in the skin reaction
- time at which beneficial effects on the dermatitis appeared (irradiated skin of pigs; after 50 Gy gamma irradiation, topical twice daily): 2 weeks
